According to patent US8192962B2, “Processes for detecting toxic substances” (Daikin Industries, Ltd., priority 2001, dated 2012):

Test system: Unknown protein yeast genes
Experiment: DNA chip mRNA expression in yeast, unknown protein yeast genes (Table 1)
Assay type: cell-based, Saccharomyces cerevisiae S288C
Procedure, shortened: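 Value is the scanned fluorescence intensity ratio of exposed versus chemical-free cells. Log-phase S288C yeast in YPD at 25° C. received one toxic substance for two hours, dosed to slow growth without killing; Cy3/Cy5-labeled cDNA from oligo-dT-purified mRNA was hybridized to a whole-genome chip at 65° C.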

## Oc1cc(Cl)c(Cl)cc1Cl [(6), 2,4,5-trichlorophenol]
Yeast gene YAL053W, incubated two hours with chemical substance
  The level of expressed mRNA in the presence of chemical substance/The level of expressed mRNA in the absence of chemical substance: 1.1
Yeast gene YBL048W
  The level of expressed mRNA in the presence of chemical substance/The level of expressed mRNA in the absence of chemical substance: 2.0
Yeast gene YBL107C
  The level of expressed mRNA in the presence of chemical substance/The level of expressed mRNA in the absence of chemical substance: 1.1
Yeast gene YDL072C, incubated two hours with chemical substance
  The level of expressed mRNA in the presence of chemical substance/The level of expressed mRNA in the absence of chemical substance: 1.5
Yeast gene YDL146W
  The level of expressed mRNA in the presence of chemical substance/The level of expressed mRNA in the absence of chemical substance: 0.7
Yeast gene YDL204W, incubated two hours with chemical substance
  The level of expressed mRNA in the presence of chemical substance/The level of expressed mRNA in the absence of chemical substance: 5.6
Yeast gene YDL222C, incubated two hours with chemical substance
  The level of expressed mRNA in the presence of chemical substance/The level of expressed mRNA in the absence of chemical substance: 1.4
Yeast gene YDR057W
  The level of expressed mRNA in the presence of chemical substance/The level of expressed mRNA in the absence of chemical substance: 0.7
Yeast gene YDR330W, incubated two hours with chemical substance
  The level of expressed mRNA in the presence of chemical substance/The level of expressed mRNA in the absence of chemical substance: 2.3
Yeast gene YDR411C, incubated two hours with chemical substance
  The level of expressed mRNA in the presence of chemical substance/The level of expressed mRNA in the absence of chemical substance: 0.8
Yeast gene YDR476C
  The level of expressed mRNA in the presence of chemical substance/The level of expressed mRNA in the absence of chemical substance: 3.1
Yeast gene YDR511W, incubated two hours with chemical substance
  The level of expressed mRNA in the presence of chemical substance/The level of expressed mRNA in the absence of chemical substance: 2.0
Yeast gene YDR545W, incubated two hours with chemical substance
  The level of expressed mRNA in the presence of chemical substance/The level of expressed mRNA in the absence of chemical substance: 1.0
Yeast gene YEL001C, incubated two hours with chemical substance
  The level of expressed mRNA in the presence of chemical substance/The level of expressed mRNA in the absence of chemical substance: 1.3
Yeast gene YER004W, incubated two hours with chemical substance
  The level of expressed mRNA in the presence of chemical substance/The level of expressed mRNA in the absence of chemical substance: 1.2
Yeast gene YER035W, incubated two hours with chemical substance
  The level of expressed mRNA in the presence of chemical substance/The level of expressed mRNA in the absence of chemical substance: 0.9
Yeast gene YER079W, incubated two hours with chemical substance
  The level of expressed mRNA in the presence of chemical substance/The level of expressed mRNA in the absence of chemical substance: 1.5
Yeast gene YER106W, incubated two hours with chemical substance
  The level of expressed mRNA in the presence of chemical substance/The level of expressed mRNA in the absence of chemical substance: 1.1
Yeast gene YER158C, incubated two hours with chemical substance
  The level of expressed mRNA in the presence of chemical substance/The level of expressed mRNA in the absence of chemical substance: 0.7
Yeast gene YER163C, incubated two hours with chemical substance
  The level of expressed mRNA in the presence of chemical substance/The level of expressed mRNA in the absence of chemical substance: 2.0
Yeast gene YER175C, incubated two hours with chemical substance
  The level of expressed mRNA in the presence of chemical substance/The level of expressed mRNA in the absence of chemical substance: 0.8
Yeast gene YFL006W, incubated two hours with chemical substance
  The level of expressed mRNA in the presence of chemical substance/The level of expressed mRNA in the absence of chemical substance: 1.2
Yeast gene YFL010C, incubated two hours with chemical substance
  The level of expressed mRNA in the presence of chemical substance/The level of expressed mRNA in the absence of chemical substance: 1.9
Yeast gene YFL024C
  The level of expressed mRNA in the presence of chemical substance/The level of expressed mRNA in the absence of chemical substance: 2.0
Yeast gene YFL032W, incubated two hours with chemical substance
  The level of expressed mRNA in the presence of chemical substance/The level of expressed mRNA in the absence of chemical substance: 0.6
Yeast gene YFL046W
  The level of expressed mRNA in the presence of chemical substance/The level of expressed mRNA in the absence of chemical substance: 0.7
Yeast gene YGL037C, incubated two hours with chemical substance
  The level of expressed mRNA in the presence of chemical substance/The level of expressed mRNA in the absence of chemical substance: 1.3
Yeast gene YGL047W, incubated two hours with chemical substance
  The level of expressed mRNA in the presence of chemical substance/The level of expressed mRNA in the absence of chemical substance: 1.5
Yeast gene YGL053W, incubated two hours with chemical substance
  The level of expressed mRNA in the presence of chemical substance/The level of expressed mRNA in the absence of chemical substance: 2.7
Yeast gene YGL059W
  The level of expressed mRNA in the presence of chemical substance/The level of expressed mRNA in the absence of chemical substance: 0.7
Yeast gene YGL121C
  The level of expressed mRNA in the presence of chemical substance/The level of expressed mRNA in the absence of chemical substance: 9.8
Yeast gene YGL199C, incubated two hours with chemical substance
  The level of expressed mRNA in the presence of chemical substance/The level of expressed mRNA in the absence of chemical substance: 0.7
Yeast gene YGR024C
  The level of expressed mRNA in the presence of chemical substance/The level of expressed mRNA in the absence of chemical substance: 0.7
Yeast gene YGR101W, incubated two hours with chemical substance
  The level of expressed mRNA in the presence of chemical substance/The level of expressed mRNA in the absence of chemical substance: 0.9
Yeast gene YGR110W
  The level of expressed mRNA in the presence of chemical substance/The level of expressed mRNA in the absence of chemical substance: 0.9
Yeast gene YGR130C, incubated two hours with chemical substance
  The level of expressed mRNA in the presence of chemical substance/The level of expressed mRNA in the absence of chemical substance: 0.9
Yeast gene YGR154C, incubated two hours with chemical substance
  The level of expressed mRNA in the presence of chemical substance/The level of expressed mRNA in the absence of chemical substance: 1.4
Yeast gene YGR221C, incubated two hours with chemical substance
  The level of expressed mRNA in the presence of chemical substance/The level of expressed mRNA in the absence of chemical substance: 3.0
Yeast gene YHL042W
  The level of expressed mRNA in the presence of chemical substance/The level of expressed mRNA in the absence of chemical substance: 0.7
Yeast gene YHR029C
  The level of expressed mRNA in the presence of chemical substance/The level of expressed mRNA in the absence of chemical substance: 2.7
Yeast gene YHR138C, incubated two hours with chemical substance
  The level of expressed mRNA in the presence of chemical substance/The level of expressed mRNA in the absence of chemical substance: 3.8
Yeast gene YHR199C, incubated two hours with chemical substance
  The level of expressed mRNA in the presence of chemical substance/The level of expressed mRNA in the absence of chemical substance: 1.1
Yeast gene YIL023C, incubated two hours with chemical substance
  The level of expressed mRNA in the presence of chemical substance/The level of expressed mRNA in the absence of chemical substance: 0.9
Yeast gene YIL041W, incubated two hours with chemical substance
  The level of expressed mRNA in the presence of chemical substance/The level of expressed mRNA in the absence of chemical substance: 1.0
Yeast gene YIL087C, incubated two hours with chemical substance
  The level of expressed mRNA in the presence of chemical substance/The level of expressed mRNA in the absence of chemical substance: 4.1
Yeast gene YJL057C, incubated two hours with chemical substance
  The level of expressed mRNA in the presence of chemical substance/The level of expressed mRNA in the absence of chemical substance: 1.4
Yeast gene YJL066C, incubated two hours with chemical substance
  The level of expressed mRNA in the presence of chemical substance/The level of expressed mRNA in the absence of chemical substance: 1.4
Yeast gene YJL082W, incubated two hours with chemical substance
  The level of expressed mRNA in the presence of chemical substance/The level of expressed mRNA in the absence of chemical substance: 0.2
Yeast gene YJL144W
  The level of expressed mRNA in the presence of chemical substance/The level of expressed mRNA in the absence of chemical substance: 1.7
Yeast gene YJL151C, incubated two hours with chemical substance
  The level of expressed mRNA in the presence of chemical substance/The level of expressed mRNA in the absence of chemical substance: 2.2
Yeast gene YJL152W, incubated two hours with chemical substance
  The level of expressed mRNA in the presence of chemical substance/The level of expressed mRNA in the absence of chemical substance: 1.5
Yeast gene YJL161W, incubated two hours with chemical substance
  The level of expressed mRNA in the presence of chemical substance/The level of expressed mRNA in the absence of chemical substance: 8.0
Yeast gene YJL163C
  The level of expressed mRNA in the presence of chemical substance/The level of expressed mRNA in the absence of chemical substance: 2.8
Yeast gene YJL171C, incubated two hours with chemical substance
  The level of expressed mRNA in the presence of chemical substance/The level of expressed mRNA in the absence of chemical substance: 2.7
Yeast gene YJR008W, incubated two hours with chemical substance
  The level of expressed mRNA in the presence of chemical substance/The level of expressed mRNA in the absence of chemical substance: 2.2
Yeast gene YJR054W, incubated two hours with chemical substance
  The level of expressed mRNA in the presence of chemical substance/The level of expressed mRNA in the absence of chemical substance: 0.7
Yeast gene YKL071W
  The level of expressed mRNA in the presence of chemical substance/The level of expressed mRNA in the absence of chemical substance: 18.6
